Literature values as cited in patent publication US20070134244A1, “Combination treatment for pathologic ocular angiogenesis” (Alcon, Inc., priority 2005, published 2007).

System: xenotransplant models of colon cancer
Conditions: xenotransplant models of colon cancer in nude (athymic) mice; Presta et al. 1997

bevacizumab
metastatic disease progression: inhibition of metastatic disease progression
microvascular growth: reduction of microvascular growth
